Measurements: ChEMBL document CHEMBL4715830, “Design, synthesis and biological evaluation of suramin-derived dual antagonists of the proinflammatory G protein-coupled receptors P2Y and GPR17” (Eur J Med Chem, 2020)
Activity calls are given as the source filed them.

What was measured:
[1] = target: P2Y purinoceptor 6 (Rattus norvegicus) (UniProt Q63371); assay: Antagonist activity at rat P2Y6 receptor expressed in human 1321N1 cells assessed as inhibition of UDP-induced intracellular calcium influx at 10 to 100 uM preincubated for 20 mins followed by UDP addition measured at 0.4 secs interval for 60 times by Oregon Green BAPTA-1/AM dye-based fluorescence assay; type: functional, cell-based; conditions: dose 10-100 µM
[2] = target: P2Y purinoceptor 12 (Homo sapiens) (UniProt Q9H244); assay: Antagonist activity at recombinant human Gi/Go-coupled GP2Y12 receptor expressed in CHOK1 cells assessed as inhibition of 2-(Methylthio)ADP-induced inhibition of beta-arrestin recruitment at 10 uM by pathhunter assay; type: cell-based; conditions: CHO-K1
[3] = target: T1, P2Y purinoceptor 14 (Homo sapiens) (UniProt Q15391); assay: Antagonist activity at recombinant human Gi/Go-coupled GP2Y14 receptor expressed in CHOK1 cells assessed as inhibition of […]-induced inhibition of beta-arrestin recruitment at 10 uM by pathhunter assay; type: cell-based
T1 sequence (whole entry): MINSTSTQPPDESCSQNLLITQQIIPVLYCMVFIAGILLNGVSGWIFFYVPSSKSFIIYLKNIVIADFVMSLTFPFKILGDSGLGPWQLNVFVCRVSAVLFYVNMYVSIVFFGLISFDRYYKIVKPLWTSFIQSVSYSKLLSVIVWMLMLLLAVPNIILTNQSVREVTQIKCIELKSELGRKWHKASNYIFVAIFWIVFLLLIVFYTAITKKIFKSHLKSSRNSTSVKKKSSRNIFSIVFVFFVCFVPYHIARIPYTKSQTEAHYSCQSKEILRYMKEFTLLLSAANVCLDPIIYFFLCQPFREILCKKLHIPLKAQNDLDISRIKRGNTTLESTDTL

[4] = target: P2Y purinoceptor 4 (Homo sapiens) (UniProt P51582); assay: Antagonist activity at human P2Y4 receptor expressed in human 1321N1 cells assessed as inhibition of UTP-induced intracellular calcium influx at 10 to 100 uM preincubated for 20 mins followed by UTP addition measured at 0.4 secs interval for 60 times by Oregon Green BAPTA-1/AM dye-based fluorescence assay; type: functional, cell-based; conditions: dose 10-100 µM
[5] = target: P2Y purinoceptor 1 (Homo sapiens) (UniProt P47900); assay: Antagonist activity at human P2Y1 receptor expressed in human 1321N1 cells assessed as inhibition of ADP-induced intracellular calcium influx at 10 uM preincubated for 20 mins followed by ADP addition measured at 0.4 secs interval for 60 times by Oregon Green BAPTA-1/AM dye-based fluorescence assay; type: functional, cell-based

Measured: inhibition

Sequence of P2Y purinoceptor 1 (Homo sapiens) (P47900 whole entry): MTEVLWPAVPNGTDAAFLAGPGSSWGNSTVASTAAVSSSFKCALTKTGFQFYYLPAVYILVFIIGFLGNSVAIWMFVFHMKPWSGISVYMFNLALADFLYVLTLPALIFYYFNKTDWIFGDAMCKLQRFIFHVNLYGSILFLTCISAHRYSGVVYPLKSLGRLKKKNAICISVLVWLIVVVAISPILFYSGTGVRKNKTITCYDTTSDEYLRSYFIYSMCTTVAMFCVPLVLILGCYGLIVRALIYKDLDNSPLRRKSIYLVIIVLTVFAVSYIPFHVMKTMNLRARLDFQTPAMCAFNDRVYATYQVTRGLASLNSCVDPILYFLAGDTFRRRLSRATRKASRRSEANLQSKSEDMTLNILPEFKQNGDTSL
Sequence of P2Y purinoceptor 12 (Homo sapiens) (Q9H244 whole entry): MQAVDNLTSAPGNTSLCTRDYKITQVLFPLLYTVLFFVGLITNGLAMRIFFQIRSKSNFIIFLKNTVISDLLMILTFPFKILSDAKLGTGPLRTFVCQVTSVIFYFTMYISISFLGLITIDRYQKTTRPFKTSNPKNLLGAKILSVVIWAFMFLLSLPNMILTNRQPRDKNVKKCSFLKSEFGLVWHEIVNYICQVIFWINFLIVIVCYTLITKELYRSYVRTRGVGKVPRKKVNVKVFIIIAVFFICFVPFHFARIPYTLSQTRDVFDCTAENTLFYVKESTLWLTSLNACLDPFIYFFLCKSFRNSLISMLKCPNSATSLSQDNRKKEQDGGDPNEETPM
Sequence of P2Y purinoceptor 4 (Homo sapiens) (P51582 whole entry): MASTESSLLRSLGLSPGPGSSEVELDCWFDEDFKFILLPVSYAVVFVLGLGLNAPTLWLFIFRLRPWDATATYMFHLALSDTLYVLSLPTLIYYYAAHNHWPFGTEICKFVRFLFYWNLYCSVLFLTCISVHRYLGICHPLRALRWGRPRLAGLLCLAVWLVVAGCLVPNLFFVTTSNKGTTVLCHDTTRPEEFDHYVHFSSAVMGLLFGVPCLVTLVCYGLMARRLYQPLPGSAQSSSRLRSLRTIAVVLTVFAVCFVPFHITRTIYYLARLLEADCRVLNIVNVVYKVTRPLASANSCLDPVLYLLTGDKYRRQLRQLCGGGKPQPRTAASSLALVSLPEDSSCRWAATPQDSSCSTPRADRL
Sequence of P2Y purinoceptor 6 (Rattus norvegicus) (Q63371 whole entry): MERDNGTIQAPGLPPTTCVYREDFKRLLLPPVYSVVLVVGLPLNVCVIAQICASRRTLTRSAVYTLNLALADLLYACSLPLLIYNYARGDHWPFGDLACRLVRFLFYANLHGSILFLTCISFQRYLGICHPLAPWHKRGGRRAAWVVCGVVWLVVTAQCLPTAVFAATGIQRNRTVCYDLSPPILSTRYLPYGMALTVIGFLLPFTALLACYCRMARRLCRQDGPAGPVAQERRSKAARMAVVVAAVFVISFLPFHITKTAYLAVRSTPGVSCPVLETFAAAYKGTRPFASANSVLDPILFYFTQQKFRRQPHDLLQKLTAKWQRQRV

O=C(Nc1ccc(S(=O)(=O)Oc2cccc([N+](=O)[O-])c2)cc1)c1ccc(Cl)c(Cl)c1
inactive: [1] | [2] | [3] | [4] | [5]

O=C(Nc1ccc(S(=O)(=O)Oc2cccc([N+](=O)[O-])c2)cc1)c1ccccc1
inactive: [1] | [2] | [3] | [4] | [5]

Cc1cccc(C(=O)Nc2cccc(S(=O)(=O)Oc3cccc([N+](=O)[O-])c3)c2)c1
inactive: [1] | [2] | [3] | [4] | [5]

Cc1cccc(C(=O)Nc2ccc(NC(=O)c3cccc([N+](=O)[O-])c3)cc2)c1
inactive: [1] | [2] | [3] | [4] | [5]

Cc1cccc(C(=O)Nc2ccc(S(=O)(=O)Nc3cccc([N+](=O)[O-])c3)cc2)c1
inactive: [1] | [2] | [3] | [4] | [5]

Cc1cccc(C(=O)Nc2cccc(NC(=O)c3cccc([N+](=O)[O-])c3)c2)c1
inactive: [1] | [2] | [3] | [4] | [5]

O=C(Nc1cccc(S(=O)(=O)Oc2cccc([N+](=O)[O-])c2)c1)c1ccc(Cl)cc1
inactive: [1] | [2] | [3] | [4] | [5]

Cc1cccc(C(=O)Nc2cccc(NC(=O)c3ccc([N+](=O)[O-])cc3)c2)c1
inactive: [1] | [2] | [3] | [4] | [5]

Cc1cccc(NC(=O)c2cccc(NC(=O)c3cccc([N+](=O)[O-])c3)c2)c1
inactive: [1] | [2] | [3] | [4] | [5]

COC(=O)c1cccc(NC(=O)Nc2cccc(NC(=O)c3cccc(C)c3)c2)c1
inactive: [1] | [2] | [3] | [4] | [5]

Cc1cccc(NC(=O)c2cccc(NC(=O)Nc3cccc(C(=O)O)c3)c2)c1
inactive: [1] | [2] | [3] | [4] | [5]

Cc1cccc(C(=O)Nc2ccc(NC(=O)c3ccc([N+](=O)[O-])cc3)cc2)c1
inactive: [1] | [2] | [3] | [4] | [5]

CCC(=O)c1cccc(C(=O)Nc2ccc(S(=O)(=O)Oc3cccc([N+](=O)[O-])c3)cc2)c1
inactive: [1] | [2] | [3] | [4] | [5]

O=C(Nc1cccc(S(=O)(=O)Oc2cccc([N+](=O)[O-])c2)c1)c1cccc(Cl)c1
inactive: [1] | [2] | [3] | [4] | [5]

CC(=O)c1cccc(C(=O)Nc2ccc(S(=O)(=O)Oc3cccc([N+](=O)[O-])c3)cc2)c1
inactive: [1] | [2] | [3] | [4] | [5]

Cc1cccc(C(=O)Nc2cccc(NC(=O)Nc3cccc(C(=O)O)c3)c2)c1
inactive: [1] | [2] | [3] | [4] | [5]

COc1cccc(C(=O)Nc2ccc(S(=O)(=O)Oc3cccc([N+](=O)[O-])c3)cc2)c1
inactive: [1] | [2] | [3] | [4] | [5]

O=C(Nc1ccc(S(=O)(=O)Oc2cccc([N+](=O)[O-])c2)cc1)c1cccc(Cl)c1
inactive: [1] | [2] | [3] | [4] | [5]

Cc1ccc(C(=O)Nc2ccc(S(=O)(=O)Oc3cccc([N+](=O)[O-])c3)cc2)cc1
inactive: [1] | [2] | [3] | [4] | [5]

Cc1cccc(C(=O)Nc2ccc(S(=O)(=O)Oc3cccc(C#N)c3)cc2)c1
inactive: [1] | [2] | [3] | [4] | [5]

Cc1cccc(C(=O)Nc2ccc(NC(=O)Nc3cccc(C(=O)O)c3)cc2)c1
inactive: [1] | [2] | [3] | [4] | [5]

O=C(Nc1ccc(S(=O)(=O)Oc2cccc([N+](=O)[O-])c2)cc1)c1cccc(Br)c1
inactive: [1] | [2] | [3] | [4] | [5]

Cc1cccc(NC(=O)c2ccc(NC(=O)c3cccc([N+](=O)[O-])c3)cc2)c1
inactive: [1] | [2] | [3] | [4] | [5]
